≈ marks a conversion by molar mass, not a printed value. Where “and” joins values, the source holds several entries; their conditions need not be identical. Equal entries are not always repeated. Where two headings read alike, the source gives them in different places.
Tests used:
CYP142 [1] = biological target: T1, CYP142 (Mycobacterium tuberculosis, UniProt P9WPL5); test: biochemical
CYP125 [2] = biological target: T2, CYP125 (Mycobacterium tuberculosis, UniProt P9WPP1); test: biochemical; assay type: binding; details: read-out: KD (μM) CYP125
CYP142 [3] = biological target: T1, CYP142; details: compound 100 µM, P450 5 µM
CYP125 [4] = biological target: T2, CYP125; assay type: binding; details: compound 100 µM, P450 5 µM
Mtb CDC1551 [5] = test: Extracellular Mtb growth on cholesterol, MABA MIC99; assay type: cell-based, Mycobacterium tuberculosis; details: read-out: MABA-MIC99 (W2) CDC1551, cholesterol
Mtb CDC1551 [6] = test: Depletion of intracellular ATP (BacTiter Glo), Mtb on cholesterol; assay type: cell-based; details: Mycobacterium tuberculosis, cholesterol as sole carbon source
Mtb H37Rv [7] = test: Extracellular Mtb growth on cholesterol, MABA MIC99; assay type: cell-based, Mycobacterium tuberculosis; details: read-out: MABA-MIC99 (W2) H37Rv, cholesterol
CYP125 [8] = biological target: T2, CYP125; test: LC-MS substrate turnover assay (cholest-4-en-3-one); assay type: biochemical; details: for IC50: CYP125 0.5 μM, cholest-4-en-3-one 5 µM, LC-MS, read-out: CYP125A1 IC50; for Ki: estimated by Cheng-Prusoff, cholest-4-en-3-one Km CYP125 = 2.1 µM, read-out: CYP125A1 KI
Mtb H37Rv [9] = test: Depletion of intracellular ATP (BacTiter Glo), Mtb on cholesterol; assay type: cell-based, Mycobacterium tuberculosis; details: Mycobacterium tuberculosis, H37RV, cholesterol as sole carbon source
Mtb H37Rv [10] = tested on: Mtb H37Rv
Experimental: (§1) (Mtb) H37Rv or CDC1551 strains were grown in Middlebrook 7H9 broth medium (Difco) supplemented with 0.3 g/L casitone, 0.81 g/L NaCl, 0.05% (v/v) tyloxapol, and either 97 mg/L cholesterol, 4 g/L glucose, or 0.2% glycerol. For inhibitor assays, a 10-fold serial dilution of the test compounds was made in the desired medium in duplicate rows of a 96-well plate. Mtb cells were then added to all the wells at the final concentration of 1 × 10^4 CFU, and plates were incubated at 37 °C for up to 15 days. Minimum inhibitory concentrations (MIC99) were determined using the Microplate Alamar Blue Assay (MABA) on day 15.
(§2) BacTiter Glo reagent (Promega) was added to microtiter plates (1:10 dilution) and luminescence was recorded after 15 min of incubation at room temperature. […] Isoniazid or p-amino salicylic acid were used as positive control compounds for all experiments. Reported MIC and IC50 values are the mean of duplicate treatments.

Mtb CDC1551 [11] = test: Depletion of intracellular ATP, Mtb on glucose; details: glucose as sole carbon source
Experimental: as §1, §2

Mtb (Erdman) = test: Extracellular Mtb (Erdman) growth on cholesterol-supplemented (0.01%) media, MABA; assay type: cell-based, Mycobacterium tuberculosis; details: MABA 1 week post-compound treatment, mean ± SD n = 3, read-out: mixed media IC50 (Erdman)
[12] = tested on: Mtb H37Rv pATB45luc in THP-1 macrophages; test: microbe, parasite or virus in culture; assay type: cell-based; details: Mycobacterium tuberculosis, 120 h, 5 days post-compound treatment, mean ± SD n = 2, read-out: intracellular growth Mtb IC50
[13] = Mycobacterium tuberculosis, CDC1551, 336 h, cholesterol as sole carbon source, 2 weeks post-compound treatment
[14] = cholesterol as sole carbon source, 2 weeks post-compound treatment
[15] = CDC1551, 168 h, 1 week post-compound treatment, read-out: ATP-IC50 (W1) CDC1551, cholesterol
[16] = CDC1551, 336 h, 2 weeks post-compound treatment, read-out: ATP-IC50 (W2) CDC1551, cholesterol
[17] = Mycobacterium tuberculosis, H37RV, 336 h, cholesterol as sole carbon source, 2 weeks post-compound treatment
[18] = 168 h, 1 week post-compound treatment, read-out: ATP-IC50 (W1) H37Rv, cholesterol
[19] = 336 h, 2 weeks post-compound treatment, read-out: ATP-IC50 (W2) H37Rv, cholesterol
[20] = read-out: ATP IC50 (W1) CDC1551, glucose media, 1 week
[21] = read-out: ATP IC50 (W2) CDC1551, glucose media, 2 weeks

T1 sequence (P9WPL5 whole entry): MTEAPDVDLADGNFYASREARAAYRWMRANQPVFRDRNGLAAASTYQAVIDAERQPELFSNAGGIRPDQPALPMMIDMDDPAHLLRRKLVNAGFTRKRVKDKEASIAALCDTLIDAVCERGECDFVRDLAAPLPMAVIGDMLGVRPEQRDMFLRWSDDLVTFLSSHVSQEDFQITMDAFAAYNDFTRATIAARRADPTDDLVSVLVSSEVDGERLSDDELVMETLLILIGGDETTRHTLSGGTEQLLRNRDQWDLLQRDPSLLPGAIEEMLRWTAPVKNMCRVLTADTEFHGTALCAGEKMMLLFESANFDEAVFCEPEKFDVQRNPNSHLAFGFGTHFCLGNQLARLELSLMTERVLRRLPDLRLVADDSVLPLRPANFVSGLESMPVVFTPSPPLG
T2 sequence (P9WPP1 whole entry): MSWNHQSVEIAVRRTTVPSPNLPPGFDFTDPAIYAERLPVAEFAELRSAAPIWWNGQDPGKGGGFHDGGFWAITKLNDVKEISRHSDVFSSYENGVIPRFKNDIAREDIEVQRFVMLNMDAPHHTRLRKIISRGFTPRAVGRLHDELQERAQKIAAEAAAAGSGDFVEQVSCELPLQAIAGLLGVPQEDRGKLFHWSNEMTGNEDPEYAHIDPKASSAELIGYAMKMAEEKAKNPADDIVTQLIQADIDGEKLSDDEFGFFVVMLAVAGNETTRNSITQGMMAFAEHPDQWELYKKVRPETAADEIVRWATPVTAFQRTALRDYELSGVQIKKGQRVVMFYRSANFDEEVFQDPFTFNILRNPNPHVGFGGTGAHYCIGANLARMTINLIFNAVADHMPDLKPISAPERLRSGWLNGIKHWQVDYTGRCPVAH

Structure (SMILES)	Kd (CYP142 [1]) [nM]	Kd (CYP125 [2]) [µM]	MIC99 (Mtb CDC1551 [5]; [13]) [µM]	IC50 (Mtb CDC1551 [6]; [15]) [µM]	IC50 (Mtb CDC1551 [6]; [16]) [µM]	MIC99 (Mtb H37Rv [7]; [17]) [µM]	IC50 (CYP125 [8]) [µM]	Ki (CYP125 [8]) [nM]	IC50 (Mtb H37Rv [9]; [18]) [µM]	IC50 (Mtb H37Rv [9]; [19]) [µM]	IC50 (Mtb H37Rv [10])	IC50 (Mtb CDC1551 [11]; [20]) [µM]	other results
CS(=O)(=O)Nc1ccc(Cc2ccncc2)cc1 [3g]	1100 ± 140	0.23 ± 0.04	–	–	–	–	–	–	–	–	–	–	CYP142 Δλmax (nm) (CYP142 [3]): 0 nm; CYP125 Δλmax (nm) LS (CYP125 [4]; low spin population, '-' = no LS maxima present): 30 nm; CYP125 LS/HS (CYP125 [4]; ratio of low spin to high spin CYP125): 2.7
O=C(Nc1ccc(Cc2ccncc2)cc1)c1ccccc1 [5a, N-(4-(Pyridin-4-ylmethyl)phenyl)benzamide]	1100 ± 100	0.54 ± 0.22	> 50	19	38	25 (≈ 7.21 µg/mL)	4.3 ± 0.5	1300	19	38	–	–	MIC99 (Mtb CDC1551 [5]; [14]): >50 µM
CN(c1ccncc1)c1ccc(NC(=O)c2ccccc2)cc1 [5c, N-(4-(Methyl(pyridin-4-yl)amino)phenyl)benzamide]	3100 ± 180	7 ± 0.21	–	–	–	> 50	26 ± 2.4	7700	9.4	19	–	–	MIC99 (Mtb H37Rv [7]; [14]): >50 µM
O=C(NCc1ccc2[nH]ccc2c1)c1ccc(Cc2ccncc2)cc1 [5f, N-((1H-Indol-5-yl)methyl)-4-(pyridin-4-ylmethyl)benzamide]	3200 ± 40	0.59 ± 0.24	> 50	> 50	> 50	> 50	3.6 ± 0.41	1100	> 50	> 50	> 50000 nM	> 50	MIC99 (Mtb CDC1551 [5]; [14]): >50 µM; MIC99 (Mtb H37Rv [7]; [14]): >50 µM; IC50 (Mtb CDC1551 [11]; [21]): > 50 µM
C[C@@H](NC(=O)c1cccc(Cc2ccncc2)c1)c1ccccc1 [5h, (R)-N-(1-Phenylethyl)-3-(pyridin-4-ylmethyl)benzamide]	3300 ± 290	40 ± 2	25 (≈ 7.91 µg/mL)	2.3	38	25 (≈ 7.91 µg/mL)	–	–	9.4	19	–	19	–
C[C@@H](NC(=O)c1ccc(Cc2ccncc2)cc1)c1ccccc1 [5i, (R)-N-(1-Phenylethyl)-4-(pyridin-4-ylmethyl)benzamide]	640 ± 470	7.4 ± 1	25 (≈ 7.91 µg/mL)	2.3	38	25 (≈ 7.91 µg/mL)	33 ± 3.7	9800	9.4	4.7	–	19	–
O=S(=O)(Nc1ccc(Cc2ccncc2)cc1)c1ccccc1 [5j, N-(4-(Pyridin-4-ylmethyl)phenyl)benzenesulfonamide]	–	0.27 ± 0.02	25 (≈ 8.11 µg/mL)	9.4	> 50	50 (≈ 16.2 µg/mL)	1.5 ± 0.16	440	38	50	19000 nM	38	IC50 (Mtb CDC1551 [11]; [21]): 38 µM
COc1ccc(CNc2ccc(N(C)c3ccncc3)cc2)cc1 [5n, N^1-(4-Methoxybenzyl)-N^4-methyl-N^4-(pyridin-4-yl)benzene-1,4-diamine]	200 ± 10	2.9 ± 0.2	–	–	–	50 (≈ 16 µg/mL)	12 ± 1.2	3600	4.7	9.4	–	–	–
COc1ccc(C(C)Nc2ccc(Cc3ccncc3)cc2)cc1 (stereo not drawn) [5o, N-(1-(4-Methoxyphenyl)ethyl)-4-(pyridin-4-ylmethyl)aniline]	–	0.8 ± 0.32	–	–	–	19 (≈ 6.05 µg/mL)	4.2 ± 0.48	1200	0.15	0.59	2300 nM	–	–
COc1c(N2C[C@@H]3CCCN[C@@H]3C2)c(F)cc2c(=O)c(C(=O)O)cn(C3CC3)c12 [Moxifloxacin, moxifloxacin, reference compound]	–	–	–	–	–	–	–	–	–	–	–	–	IC50 (Mtb (Erdman)): 330 ± 10 nM
Nc1ccc(C(=O)O)c(O)c1 [p-aminosalicylic acid, reference compound]	–	–	–	0.04	2.3	–	–	–	0.04	0.29	< 40 nM and 70 nM	< 0.04	IC50 [12]: 2400 ± 120 nM; MIC99 (Mtb CDC1551 [5]; Mycobacterium tuberculosis, CDC1551, 336 h): 0.39 µM (≈ 0.0597 µg/mL); MIC99 (Mtb H37Rv [7]; Mycobacterium tuberculosis, H37RV, 336 h): 0.19 µM (≈ 0.0291 µg/mL); IC50 (Mtb CDC1551 [11]; [21]): 0.07 µM
